Reference: patent publication US20100003191A1, “AURONE DERIVATIVE-CONTAINING COMPOSITION FOR DIAGNOSIS” (NAGASAKI UNIVERSITY, priority 2006, published 2010)

Assay: In vivo radioactivity biodistribution experiment in normal mice (Example 1, Table 13)
Parameters: species or system ddY mice
Description: ^125I-labeled compounds were diluted with 10% ethanol-containing physiological saline. […] After their blood was collected, organs were removed, and the weights and radioactivities thereof were measured.
When any of the aurone derivatives was used, sufficient radioactivity to perform imaging of intracerebral amyloid migrated to the brain from the early stage of injection (1.7-4.6% ID/g). […] It was also shown that, in any of the aurone derivatives, in vivo radioactivity behavior is discharged mainly from the liver to the bile duct and the intestinal tract.

Structure (SMILES)	Biodistribution of radioactivity, Blood (2 min after injection)	Biodistribution of radioactivity, Blood (10 min after injection)	Biodistribution of radioactivity, Blood (30 min after injection)	Biodistribution of radioactivity, Blood (60 min after injection)	Biodistribution of radioactivity, Brain (2 min after injection)	Biodistribution of radioactivity, Brain (10 min after injection)	Biodistribution of radioactivity, Brain (30 min after injection)	Biodistribution of radioactivity, Brain (60 min after injection)	Biodistribution of radioactivity, Heart (2 min after injection)	Biodistribution of radioactivity, Heart (10 min after injection)	Biodistribution of radioactivity, Heart (30 min after injection)	Biodistribution of radioactivity, Heart (60 min after injection)	Biodistribution of radioactivity, Intestine (2 min after injection)	Biodistribution of radioactivity, Intestine (10 min after injection)	Biodistribution of radioactivity, Intestine (30 min after injection)	Biodistribution of radioactivity, Intestine (60 min after injection)	Biodistribution of radioactivity, Kidney (2 min after injection)	Biodistribution of radioactivity, Kidney (10 min after injection)	Biodistribution of radioactivity, Kidney (30 min after injection)	Biodistribution of radioactivity, Kidney (60 min after injection)	further results
CN(C)c1ccc(/C=C2\Oc3ccc([125I])cc3C2=O)cc1 [[^125I]7]	2.69 (0.29) % injected dose per gram	1.96 (0.34) % injected dose per gram	1.48 (0.15) % injected dose per gram	0.94 (0.25) % injected dose per gram	1.89 (0.38) % injected dose per gram	0.69 (0.21) % injected dose per gram	0.26 (0.04) % injected dose per gram	0.11 (0.03) % injected dose per gram	3.80 (0.66) % injected dose per gram	1.36 (0.66) % injected dose per gram	0.55 (0.29) % injected dose per gram	0.45 (0.11) % injected dose per gram	1.65 (0.35) % injected dose per gram	5.37 (1.10) % injected dose per gram	9.50 (1.45) % injected dose per gram	11.85 (2.70) % injected dose per gram	7.84 (1.92) % injected dose per gram	8.31 (3.19) % injected dose per gram	10.37 (2.34) % injected dose per gram	4.51 (1.43) % injected dose per gram	Biodistribution of radioactivity, Liver (2 min after injection): 10.21 (1.87) % injected dose per gram; Biodistribution of radioactivity, Liver (10 min after injection): 7.86 (2.25) % injected dose per gram; Biodistribution of radioactivity, Liver (30 min after injection): 5.60 (0.59) % injected dose per gram; Biodistribution of radioactivity, Liver (60 min after injection): 4.33 (0.76) % injected dose per gram; Biodistribution of radioactivity, Lung (2 min after injection): 4.02 (0.83) % injected dose per gram; Biodistribution of radioactivity, Lung (10 min after injection): 2.44 (0.54) % injected dose per gram; Biodistribution of radioactivity, Lung (30 min after injection): 1.51 (0.41) % injected dose per gram; Biodistribution of radioactivity, Lung (60 min after injection): 1.17 (0.26) % injected dose per gram; Biodistribution of radioactivity, Pancreas (2 min after injection): 3.17 (0.68) % injected dose per gram; Biodistribution of radioactivity, Pancreas (10 min after injection): 1.04 (0.25) % injected dose per gram; Biodistribution of radioactivity, Pancreas (30 min after injection): 0.55 (0.21) % injected dose per gram; Biodistribution of radioactivity, Pancreas (60 min after injection): 0.30 (0.06) % injected dose per gram; Biodistribution of radioactivity, Spleen (2 min after injection): 1.76 (0.28) % injected dose per gram; Biodistribution of radioactivity, Spleen (10 min after injection): 0.81 (0.54) % injected dose per gram; Biodistribution of radioactivity, Spleen (30 min after injection): 0.51 (0.10) % injected dose per gram; Biodistribution of radioactivity, Spleen (60 min after injection): 0.37 (0.11) % injected dose per gram; Biodistribution of radioactivity, Stomach (2 min after injection): 1.21 (0.29) % injected dose per organ; Biodistribution of radioactivity, Stomach (10 min after injection): 1.35 (1.25) % injected dose per organ; Biodistribution of radioactivity, Stomach (30 min after injection): 1.87 (0.79) % injected dose per organ; Biodistribution of radioactivity, Stomach (60 min after injection): 1.51 (1.04) % injected dose per organ
O=C1/C(=C/c2ccc(O)cc2)Oc2ccc([125I])cc21 [[^125I]20]	3.14 (0.73) % injected dose per gram	2.77 (0.28) % injected dose per gram	1.75 (0.38) % injected dose per gram	0.87 (0.28) % injected dose per gram	3.07 (0.39) % injected dose per gram	1.48 (0.19) % injected dose per gram	0.37 (0.07) % injected dose per gram	0.14 (0.12) % injected dose per gram	6.23 (0.63) % injected dose per gram	2.57 (0.41) % injected dose per gram	0.98 (0.14) % injected dose per gram	0.42 (0.09) % injected dose per gram	2.11 (0.75) % injected dose per gram	6.12 (0.83) % injected dose per gram	12.67 (2.13) % injected dose per gram	14.87 (5.42) % injected dose per gram	11.08 (2.96) % injected dose per gram	11.22 (2.26) % injected dose per gram	5.82 (1.11) % injected dose per gram	2.43 (1.04) % injected dose per gram	Biodistribution of radioactivity, Liver (2 min after injection): 6.05 (1.49) % injected dose per gram; Biodistribution of radioactivity, Liver (10 min after injection): 6.63 (1.08) % injected dose per gram; Biodistribution of radioactivity, Liver (30 min after injection): 4.23 (0.63) % injected dose per gram; Biodistribution of radioactivity, Liver (60 min after injection): 4.45 (3.14) % injected dose per gram; Biodistribution of radioactivity, Lung (2 min after injection): 6.69 (0.86) % injected dose per gram; Biodistribution of radioactivity, Lung (10 min after injection): 3.14 (0.23) % injected dose per gram; Biodistribution of radioactivity, Lung (30 min after injection): 1.62 (0.22) % injected dose per gram; Biodistribution of radioactivity, Lung (60 min after injection): 0.80 (0.19) % injected dose per gram; Biodistribution of radioactivity, Pancreas (2 min after injection): 5.28 (0.99) % injected dose per gram; Biodistribution of radioactivity, Pancreas (10 min after injection): 2.65 (0.64) % injected dose per gram; Biodistribution of radioactivity, Pancreas (30 min after injection): 0.92 (0.19) % injected dose per gram; Biodistribution of radioactivity, Pancreas (60 min after injection): 0.36 (0.09) % injected dose per gram; Biodistribution of radioactivity, Spleen (2 min after injection): 2.18 (0.48) % injected dose per gram; Biodistribution of radioactivity, Spleen (10 min after injection): 1.36 (0.15) % injected dose per gram; Biodistribution of radioactivity, Spleen (30 min after injection): 0.69 (0.14) % injected dose per gram; Biodistribution of radioactivity, Spleen (60 min after injection): 0.42 (0.02) % injected dose per gram; Biodistribution of radioactivity, Stomach (2 min after injection): 1.30 (0.43) % injected dose per organ; Biodistribution of radioactivity, Stomach (10 min after injection): 2.53 (0.97) % injected dose per organ; Biodistribution of radioactivity, Stomach (30 min after injection): 2.82 (1.88) % injected dose per organ; Biodistribution of radioactivity, Stomach (60 min after injection): 2.26 (0.88) % injected dose per organ
